One data set concerns BGC-823. In words: Cytotoxicity against human BGC823 cells assessed as cell growth inhibition after 72 hrs by MTT assay. In kind it is functional, cell-based. The following applies: BGC-823, 72 h.
The next data set relates to SGC-7901. As to the kind of experiment: Cytotoxicity against human SGC7901 cells assessed as cell growth inhibition after 72 hrs by MTT assay. Format: functional, cell-based. The following applies: SGC-7901, 72 h.
For data set [1], the system named is NCI-H460. As to the kind of experiment: Cytotoxicity against human NCI-H460 cells assessed as cell growth inhibition after 72 hrs by MTT assay. In kind it is functional, cell-based. Conditions: NCI-H460, 72 h.
Data set [2] deals with NCI-H460. In words: Anti-growth activity against human NCI-H460 cells assessed as reduction in colony formation after 18 hrs by crystal violet-based colony forming assay. In kind it is functional, cell-based.
For data set [3], the system named is Mus musculus. In words: Toxicity in BALB/C nu nude mouse xenografted with human NCI-H460 cells assessed as histopathological changes in lung at 15 mg/kg, ip administered everyday for 15 days by hematoxylin and eosin staining based light microscopic analysis. Conditions: in vivo, 360 h. Format: organism-based. For orientation: In xenograft studies the graft and the host belong to different species.

Data set [4] relates to Mus musculus. As to the kind of experiment: Toxicity in BALB/C nu nude mouse xenografted with human NCI-H460 cells assessed as weight loss at 15 mg/kg, ip administered everyday for 15 days measured every 2 days. In kind it is organism-based. Conditions: in vivo.
The subject of data set [5] is NCI-H460. As to the kind of experiment: Antitumor activity against human NCI-H460 cells xenografted in BALB/C-nu nude mouse assessed as reduction in tumor growth at 15 mg/kg, ip administered every day for 15 days. Format: functional, organism-based.
In data set [6] the test system is Mus musculus. As to the kind of experiment: Toxicity in BALB/C nu nude mouse xenografted with human NCI-H460 cells assessed as induction of abnormal behavior at 15 mg/kg, ip administered everyday for 15 days. Format: organism-based. Conditions: in vivo, 360 h.
For data set [7], the system named is Mus musculus. In words: Toxicity in BALB/C nu nude mouse xenografted with human NCI-H460 cells assessed as histopathological changes in liver at 15 mg/kg, ip administered everyday for 15 days by hematoxylin and eosin staining based light microscopic analysis. Conditions: in vivo, 360 h. Format: organism-based.
The test system of data set [8] is NCI-H460. In words: Cell cycle arrest in human NCI-H460 cells assessed as accumulation at G2/M phase at 5 to 20 uM after 48 hrs by propidium iodide staining-based flow cytometry. In kind it is functional.
In data set [9] the test system is NCI-H460. As to the kind of experiment: Induction of apoptosis in tumor of human NCI-H460 cells xenografted in BALB/C nu nude mouse assessed as downregulation of bcl2 expression at 15 mg/kg, ip administered everyday for 15 days by Western blot analysis. Format: functional, organism-based.
Data set [10] concerns NCI-H460. As to the kind of experiment: Growth inhibition of human NCI-H460 cells assessed as reduction in cell viability at 5 to 10 uM incubated for 24 to 72 hrs by MTT assay. In kind it is functional, cell-based. (Formazan colour is commonly taken as a measure of viable cells.)
In data set [11] the test system is NCI-H460. In words: Anti-migratory activity against human NCI-H460 cells incubated for 48 hrs by wound healing assay. In kind it is functional, cell-based.
The subject of data set [12] is NCI-H460. As to the kind of experiment: Anti-migratory activity against human NCI-H460 cells at 10 uM incubated for 48 hrs by wound healing assay. In kind it is functional, cell-based.
In data set [13] the test system is NCI-H460. In words: Anti-growth activity against human NCI-H460 cells assessed as reduction in colony formation at 10 uM after 48 hrs by crystal violet-based colony forming assay. Format: functional, cell-based.
For data set [14], the system named is NCI-H460. In words: Anti-growth activity against human NCI-H460 cells assessed as reduction in colony formation at 20 uM after 18 hrs by crystal violet-based colony forming assay. Format: functional, cell-based.
Data set [15] concerns NCI-H460. As to the kind of experiment: Anti-migratory activity against human NCI-H460 cells at 20 uM incubated for 48 hrs by wound healing assay. In kind it is functional, cell-based.

Calls of active or inactive are those of the source. The rule behind the calls is not given here.

In general, IC50 refers to the concentration that inhibits the measured activity by half. As to `O=C1Nc2ccccc2/C1=C\C(=O)c1ccccc1F`, the 50% inhibitory concentration (IC50) in the data set on BGC-823 was found to be 11.8 µM; in the data set with SGC-7901, 17.4 µM; in the data set on NCI-H460 [1] it was 8.5 µM.
`O=C1Nc2ccccc2/C1=C\C(=O)c1ccc([N+](=O)[O-])cc1`: the IC50 was 14.3 µM with BGC-823, 18.2 µM in the data set on SGC-7901 and 18.4 µM with NCI-H460 [1].
As for `C=CC(=O)Nc1cccc(C(=O)/C=C2/C(=O)Nc3ccccc32)c1`, the Activity result in the data set on NCI-H460 [2] is “Dose-dependent effect”; in the data set with Mus musculus [3] it was “Non-Toxic”; in the data set on Mus musculus [4], “Non-Toxic”; in the data set with Mus musculus [6] it was “Non-Toxic”; with Mus musculus [7], “Non-Toxic”; in the data set with NCI-H460 [10] it was “Dose-dependent effect”. Moreover, the Activity entry in the data set on NCI-H460 [11] is “Dose-dependent effect”. Also, in the data set with NCI-H460 [5], the TGI entry was “Active”. Also, the results for the IC50 with BGC-823, in the data set with SGC-7901 and in the data set with NCI-H460 [1] were 3.6 µM, 5.7 µM and 3.2 µM, respectively. Besides, the outcome with NCI-H460 [8] and in the data set with NCI-H460 [9] was Active. Further, in the data set with NCI-H460 [10] (TDE = time-dependent effect), the “growth inhibition (GI)” value is “Tde”.
Turning to `COc1ccccc1C(=O)/C=C1/C(=O)Nc2ccccc21`, the IC50 turned out to be 10.2 µM with BGC-823, 16.3 µM with SGC-7901 and 10.2 µM with NCI-H460 [1].
For `O=C1Nc2ccccc2/C1=C\C(=O)c1ccccc1Cl`, the IC50 was 9.1 µM with BGC-823, 12.8 µM in the data set on SGC-7901 and 7.7 µM with NCI-H460 [1].
The matching figures for `O=C1Nc2ccccc2/C1=C\C(=O)c1cc(Cl)ccc1Cl`: 53.7 µM, 56.3 µM and 61.6 µM.
Turning to `Nc1cccc(C(=O)/C=C2/C(=O)Nc3ccccc32)c1`, the IC50 came out at 29.9 µM in the data set on BGC-823, 14.4 µM with SGC-7901 and 20.4 µM in the data set on NCI-H460 [1].
The matching figures for `O=C1Nc2ccccc2/C1=C\C(=O)c1cccc(Cl)c1`: 7.7 µM, 8.4 µM and 9.8 µM.
The matching figures for `Nc1c(Cl)cc(C(=O)/C=C2/C(=O)Nc3ccccc32)cc1Cl`: 8.5 µM, 11.9 µM and 6.2 µM.
In the same order, the values of `COc1ccc(C(=O)/C=C2/C(=O)Nc3ccccc32)c(OC)c1` are 9.2 µM, 11.5 µM and 5.4 µM.
With `CCC(=O)Nc1cccc(C(=O)/C=C2/C(=O)Nc3ccccc32)c1`, the IC50 in the data set on BGC-823 is 7.5 µM; in the data set with SGC-7901, 11.5 µM; in the data set on NCI-H460 [1] it was 10.3 µM.
As to `CC(=O)Nc1cccc(C(=O)/C=C2/C(=O)Nc3ccccc32)c1`, the IC50 worked out at 9.1 µM in the data set on BGC-823, 14.1 µM with SGC-7901 and 12.3 µM in the data set on NCI-H460 [1].
For `COc1cc(O)c(CC=C(C)C)c(O)c1C(=O)/C=C/c1ccc(O)cc1` [XANTHOHUMOL], the IC50 was determined as 7.8 µM in the data set with BGC-823, 10 µM with SGC-7901 and 6.9 µM in the data set with NCI-H460 [1]. The outcome with NCI-H460 [12] and in the data set with NCI-H460 [13] was Active. Further, the “growth inhibition (GI)” value with NCI-H460 [10] was “Active”.
Regarding `CC(C)C(=O)Nc1cccc(C(=O)/C=C2/C(=O)Nc3ccccc32)c1`, the figures for the IC50 with BGC-823, in the data set with SGC-7901 and in the data set on NCI-H460 [1] were 6.2 µM, 8.6 µM and 9.7 µM, respectively.
The matching figures for `O=C1Nc2ccccc2/C1=C\C(=O)c1ccc(Cl)c(Cl)c1`: 13.2 µM, 17.8 µM and 13.7 µM.
For the compound `O=C1Nc2ccccc2/C1=C\C(=O)c1ccccc1`, the values for the IC50 with BGC-823, in the data set with SGC-7901 and with NCI-H460 [1] were 13.2 µM, 9.3 µM and 10.4 µM, respectively.
In the same order, the values of `O=C1Nc2ccccc2/C1=C\C(=O)c1ccc(F)cc1` are 11.1 µM, 12.4 µM and 7.5 µM.
The matching figures for `COc1cc(C(=O)/C=C2/C(=O)Nc3ccccc32)cc(OC)c1OC`: 13.9 µM, 18.3 µM and 10.9 µM.
In the same order, the values of `COc1ccc(C(=O)/C=C2/C(=O)Nc3ccccc32)cc1` are 19.8 µM, 23.2 µM and 5.5 µM.
With `O=C1Nc2ccccc2/C1=C\C(=O)c1ccc(Cl)cc1`, the results for the IC50 in the data set with BGC-823, in the data set on SGC-7901 and in the data set with NCI-H460 [1] were 6.9 µM, 8.5 µM and 6.5 µM, respectively.
As to `COc1cc(/C=C/C(=O)CC(=O)/C=C/c2ccc(O)c(OC)c2)ccc1O` [CURCUMIN], the Activity entry in the data set on Mus musculus [3] and in the data set with Mus musculus [7] was “Non-Toxic” each time. Besides, the half-maximal inhibitory concentration (IC50) in the data set with BGC-823 came out at 19.5 µM; in the data set on SGC-7901 it was 26.2 µM. The result in the data set with NCI-H460 [14], in the data set with NCI-H460 [9] and in the data set on NCI-H460 [15] was Active. Further, the “growth inhibition (GI)” value in the data set on NCI-H460 [10] was “Active”.
Take `O=C1Nc2ccccc2/C1=C\C(=O)c1ccc(Br)cc1`: the values for the IC50 in the data set with BGC-823, in the data set on SGC-7901 and in the data set on NCI-H460 [1] were 9 µM, 10.2 µM and 11.5 µM, respectively.
In the same order, the values of `O=C1Nc2ccccc2/C1=C\C(=O)c1cc(F)cc(F)c1` are 15.7 µM, 17.6 µM and 13.3 µM.
As for `O=C1Nc2ccccc2/C1=C\C(=O)c1ccccc1Br`, the values for the IC50 in the data set with BGC-823, with SGC-7901 and in the data set on NCI-H460 [1] were 9.5 µM, 13.1 µM and 11 µM, respectively.

Values taken from ChEMBL document CHEMBL4251621, “Design, synthesis and QSAR study of novel isatin analogues inspired Michael acceptor as potential anticancer compounds” (Eur J Med Chem, 2018).
